Data from PMC11935913, “Silk Nanococoons: Bio‐Nanoreactors for Enzymatic Catalytic Reactions and Applications to Alcohol Intoxication” (Small Science, 2021).

Target: T1, horseradish peroxidase (HRP) (Armoracia rusticana, UniProt P00433)
T1 construct: gene PRXC1A
T1 sequence (P00433 31-338): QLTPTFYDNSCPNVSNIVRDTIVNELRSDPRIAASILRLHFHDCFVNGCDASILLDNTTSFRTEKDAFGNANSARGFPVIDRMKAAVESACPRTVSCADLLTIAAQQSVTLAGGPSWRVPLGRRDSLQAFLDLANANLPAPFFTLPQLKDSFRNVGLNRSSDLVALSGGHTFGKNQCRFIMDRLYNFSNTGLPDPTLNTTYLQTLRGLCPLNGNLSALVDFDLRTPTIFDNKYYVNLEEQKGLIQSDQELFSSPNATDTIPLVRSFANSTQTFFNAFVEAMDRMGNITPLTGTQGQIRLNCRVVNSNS
Experiment: absorbance, plate reader, oxidation by H2O2
Assay type: biochemical
Conditions: H2O2 co-substrate

SMILES	absorbance, plate reader, oxidation by H2O2 (enzyme in silk fibroin nanospheres)	absorbance, plate reader, oxidation by H2O2 (generated by GOx from glucose)
Cc1cc(-c2cc(C)c(N)c(C)c2)cc(C)c1N [3,3′,5,5′‐tetramethylbenzidine]	activity recovery of enzyme HRP in SENs was monitored by the oxidation of TMB	–
COc1cc(-c2ccc(N)c(OC)c2)ccc1N [o‐dianisidine]	–	the ODS or TMB gets oxidized by H2O2 under the catalysis of HRP
